Several values for one entry are separate records, joined by “and”; a condition that tells them apart may be missing. Identical values can stand only once.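 Five compound concentrations were applied to cells in 96-well plates for 48 hours; endpoints were derived by simple linear interpolation of the resulting dose-response curve. GI50 is the concentration that inhibits growth by half. TGI: total growth inhibition.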
Legend:
Experiment in all cases: NCI anticancer screen, dose series, 48 h
[1] = tested on: HT29 colon
[2] = tested on: DLD-1 colon
[3] = tested on: 786-0 renal
[4] = tested on: NCI-H23 lung
[5] = tested on: TK-10 renal
[6] = tested on: NCI-H460 lung
[7] = tested on: OVCAR-8 ovarian
[8] = tested on: M19-MEL melanoma
[9] = tested on: BT-549 breast
[10] = tested on: HS 578T breast

| Compound | TGI [1] | TGI [2] | TGI [3] | TGI [4] | TGI [5] | TGI [6] | TGI [7] | TGI [8] | TGI [9] [µM] | TGI [10] [µM] | GI50 [9] [µM] | GI50 [1] [µM] | GI50 [3] [µM] | GI50 [6] [µM] | GI50 [7] [µM] | GI50 [10] [µM] | GI50 [2] [µM] | GI50 [4] [µM] | GI50 [5] [µM] | GI50 [8] [µM] |
| --- | --- | --- | --- | --- | --- | --- | --- | --- | --- | --- | --- | --- | --- | --- | --- | --- | --- | --- | --- | --- |
| O=C1C(=O)N(c2ccc(Cl)cc2Cl)C(=O)C(=O)C1c1nc2ccccc2o1 | > 100 µM | > 100 µM | > 100 µM | > 100 µM | > 100 µM | > 100 µM | > 100 µM | > 100 µM | – | – | – | – | – | – | – | – | – | – | – | – |
| CC(=O)CCCCO | > 100 µM | – | > 100 µM | > 100 µM | > 100 µM | > 100 µM | > 100 µM | > 100 µM | – | – | – | – | – | – | – | – | – | – | – | – |
| COc1cccc(Cc2c3cc(OC)ccc3cc[n+]2C)c1 | > 100 µM | > 100 µM | > 100 µM | > 100 µM | > 100 µM | > 100 µM | > 100 µM | – | – | – | – | – | – | – | – | – | – | – | – | – |
| COc1ccccc1NC(=O)C1=C(C)NC(C)=C(C(=O)Nc2ccccc2OC)C1c1ccc(C)cc1 | > 100 µM | – | > 100 µM | > 100 µM | > 100 µM | > 100 µM | > 100 µM | > 100 µM | – | – | – | – | – | – | – | – | – | – | – | – |
| CCOC(=O)C1SC(=Nc2ccc(Cl)c(Cl)c2)N=C1C (stereo not drawn) | 66.8 µM | > 100 µM | 31.3 µM | > 100 µM | > 100 µM | > 100 µM | > 100 µM | > 100 µM | – | – | – | – | – | – | – | – | – | – | – | – |
| CCSC1=C(C)N(C=NC(C)(C)C)CC1 | > 100 µM | > 100 µM | > 100 µM | > 100 µM | > 100 µM | > 100 µM | > 100 µM | > 100 µM | – | – | – | – | – | – | – | – | – | – | – | – |
| C/C(=N\N=C(/[Se])N1CC2CCC(CC2)C1)c1ccccn1 | 2.6 µM | 1.96 µM | 2.52 µM | 1.57 µM | 3.7 µM | 2.61 µM | 2.34 µM | 0.559 µM | 1.63 | 7.77 | – | – | – | – | – | – | – | – | – | – |
| COc1cc(/C=C2\CCC(CN(C)C)C2=O)ccc1OC(=O)c1ccccc1 (stereo not drawn) | 26.6 µM | 16.1 µM | 12.4 µM | 36.7 µM | 23.5 µM | 37.7 µM | 22 µM | 24.7 µM | 30 | 74.8 | – | – | – | – | – | – | – | – | – | – |
| NC(N)=NNC(=O)CCCCCCCC(=O)NN=C(N)N | > 100 µM | > 100 µM | > 100 µM | > 100 µM | > 100 µM | > 100 µM | – | > 100 µM | – | – | – | – | – | – | – | – | – | – | – | – |
| O=C(CC(=O)N1N=C(N2c3ccccc3Sc3ccccc32)CC1c1ccccc1)Nc1ccc(Cl)cc1 (stereo not drawn) | > 100 µM | > 100 µM | > 100 µM | > 100 µM | > 100 µM | > 100 µM | > 100 µM | > 100 µM | – | – | – | – | – | – | – | – | – | – | – | – |
| Nc1c(C(=O)Nc2ccccc2)[n+]([O-])c2ccccc2[n+]1[O-] | 37 µM | 37.6 µM | 27.1 µM | 28.8 µM | 42.2 µM | 35.7 µM | > 100 µM | 32.2 µM | – | – | – | – | – | – | – | – | – | – | – | – |
| COc1cc2c[n+](C)c3c4ccccc4ccc3c2cc1OC (tested in a mixture with another compound) | 32.4 µM | > 100 µM | 39.5 µM | 31.7 µM | 87.3 µM | 31.7 µM | 31.7 µM | 15.4 µM | 24.6 | 18.4 | 11 | 3.94 | 4.53 | 2.96 | 3.57 | 3.35 | – | – | – | – |
| CCN(CCCl)CCCNc1c2ccccc2nc2ccc(OC)cc12 | – | – | – | – | – | – | 1.63 µM | – | – | – | – | 82.3 | 102 | 129 | – | – | 174 | 382 | 872 | 323 |
| CC(C)(C)C(=O)ON1N=NC2C3CC(OCc4ccccc4)(OCc4ccccc4)C(O3)C21 (stereo not drawn) | 47.9 µM | 44.6 µM | 36.4 µM | 43.4 µM | – | 60.4 µM | – | 30 µM | – | – | – | – | – | – | – | – | – | – | – | – |
| O=C1c2c(n(Cc3ccccc3)c(=O)n2Cc2ccccc2)C(=O)N1Cc1ccccc1 | > 100 µM | > 100 µM | > 100 µM | > 100 µM | > 100 µM | > 100 µM | > 100 µM | > 100 µM | – | – | – | – | – | – | – | – | – | – | – | – |
| Cc1cc(NS(=O)(=O)c2ccc(NC(=O)c3cccc4c(Nc5ccc(S(=O)(=O)N=C(N)N)cc5)c5ccccc5nc34)cc2)no1 | > 100 µM | > 100 µM | > 100 µM | > 100 µM | > 100 µM | > 100 µM | > 100 µM | – | – | – | – | – | – | – | – | – | – | – | – | – |
| O=C(OCC1CO1)c1cccs1 (stereo not drawn) | > 100 µM | > 100 µM | > 100 µM | > 100 µM | > 100 µM | > 100 µM | > 100 µM | > 100 µM | – | – | – | – | – | – | – | – | – | – | – | – |
| COc1cc2c(cc1O)CC13CCC(=O)N1CCc1cc(OC)c(O)c-2c13 (stereo not drawn) | > 68.1 µM | > 68.1 µM | > 68.1 µM | > 68.1 µM | > 68.1 µM | > 68.1 µM | > 68.1 µM | > 68.1 µM | – | – | – | – | – | – | – | – | – | – | – | – |
| CCOC(=O)C(=Cc1ccc(C(=O)OC)cc1)C(=O)OCC | 18.1 µM | 4.46 µM | 3.15 µM | 3.36 µM | 7.34 µM | 55.2 µM | 10.3 µM | 10.2 µM | – | – | – | – | – | – | – | – | – | – | – | – |
| CC(=O)OCC1OC(OC2CC3C(C)(C)C(O)CC[C@]3(C)C3CCC45CC4(CC[C@H]5C(C)CC(O)C4OC4(C)C)[C@]23C)C(O)C(O)C1O (stereo partly drawn) | 15.7 µM and 27.7 µM | 14.9 µM and 28.8 µM | 14.9 µM and 18.9 µM | 16.5 µM and 27.5 µM | 15.7 µM and 29.5 µM | 16.8 µM and 20.4 µM | 14.4 µM and 23.8 µM | 10.6 µM and 12.6 µM | – | – | – | 12.9 | 5.67 | 5.08 | 8.97 | – | 14 | 12.2 | 15.2 | 3.7 |

From PubChem BioAssay (NCI)
